From ChEMBL document CHEMBL4477255, “Charting the chemical space around the (iso)indoline scaffold, a comprehensive approach towards multitarget directed ligands” (Bioorg Med Chem Lett, 2016) come the findings set out here.

Format in all cases: cell-based
In assay [1] the target is T1, Histamine H3 receptor (Homo sapiens, UniProt Q9Y5N1). Briefly: Displacement of N-alpha-[methyl-3H]methylhistamine dihydrochloride from human recombinant histamine H3 receptor expressed in CHO-K1 cells incubated for 30 mins by liquid scintillation counting analysis.
T1 sequence (Q9Y5N1 whole entry): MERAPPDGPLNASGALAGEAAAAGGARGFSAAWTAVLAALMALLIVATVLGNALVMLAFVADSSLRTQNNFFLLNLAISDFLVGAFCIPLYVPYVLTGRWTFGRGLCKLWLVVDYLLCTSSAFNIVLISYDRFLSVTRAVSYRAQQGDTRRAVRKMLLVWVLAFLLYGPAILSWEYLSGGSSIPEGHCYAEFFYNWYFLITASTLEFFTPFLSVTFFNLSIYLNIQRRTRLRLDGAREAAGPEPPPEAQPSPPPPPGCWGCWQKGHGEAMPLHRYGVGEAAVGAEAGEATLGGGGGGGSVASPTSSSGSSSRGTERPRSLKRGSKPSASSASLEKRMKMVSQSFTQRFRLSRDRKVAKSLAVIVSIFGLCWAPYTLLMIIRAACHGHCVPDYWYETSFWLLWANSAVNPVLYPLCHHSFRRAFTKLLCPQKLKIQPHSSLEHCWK
Assay [2] addresses T2, D(3) dopamine receptor (Homo sapiens, UniProt P35462). Briefly: Displacement of [3H]raclopride from human recombinant dopamine D3 receptor expressed in CHO-K1 cells incubated for 120 mins by liquid scintillation counting analysis. Background: Displacement assays read how much labelled ligand stays bound in the presence of the test substance.
The target of assay [3] is T3, 5-hydroxytryptamine receptor 6 (Homo sapiens, UniProt P50406). Briefly: Displacement of [3H]LSD from human recombinant 5-HT6 receptor expressed in CHO-K1 cells incubated for 3 hrs by scintillation counting analysis.
T3 sequence (P50406 whole entry): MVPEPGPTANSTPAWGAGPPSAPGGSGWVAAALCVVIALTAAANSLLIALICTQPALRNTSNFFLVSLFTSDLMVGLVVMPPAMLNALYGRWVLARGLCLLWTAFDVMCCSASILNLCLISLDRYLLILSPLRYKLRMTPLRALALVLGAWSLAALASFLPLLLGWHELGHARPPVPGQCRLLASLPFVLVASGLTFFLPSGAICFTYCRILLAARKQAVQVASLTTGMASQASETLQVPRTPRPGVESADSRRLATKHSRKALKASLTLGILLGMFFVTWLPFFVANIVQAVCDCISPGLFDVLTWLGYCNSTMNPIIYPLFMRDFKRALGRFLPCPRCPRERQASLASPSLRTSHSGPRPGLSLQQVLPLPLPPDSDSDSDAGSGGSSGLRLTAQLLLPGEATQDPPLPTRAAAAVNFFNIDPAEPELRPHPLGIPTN
For assay [4], the target named is T1, Histamine H3 receptor. Briefly: Displacement of N-alpha-[methyl-3H]methylhistamine dihydrochloride from human recombinant histamine H3 receptor expressed in CHO-K1 cells at 1 uM incubated for 30 mins by liquid scintillation counting analysis.
The species named for assay [5] is Homo sapiens. Briefly: Selectivity index, ratio of Ki for human recombinant dopamine D3 receptor expressed in CHO-K1 cells to Ki for dopamine D2 long receptor expressed in CHO-K1 cells.
Assay [6] deals with T3, 5-hydroxytryptamine receptor 6. Briefly: Displacement of [3H]LSD from human recombinant 5-HT6 receptor expressed in CHO-K1 cells at 1 uM incubated for 3 hrs by scintillation counting analysis.
Assay [7] deals with T2, D(3) dopamine receptor. Briefly: Displacement of [3H]raclopride from human recombinant dopamine D3 receptor expressed in CHO-K1 cells at 1 uM incubated for 120 mins by liquid scintillation counting analysis.
The target of assay [8] is T4, D(2) dopamine receptor (Homo sapiens, UniProt P14416). Briefly: Displacement of [3H]raclopride from human recombinant dopamine D2 long receptor expressed in CHO-K1 cells at 1 uM incubated for 120 mins by scintillation counting analysis.
T4 sequence (P14416 whole entry): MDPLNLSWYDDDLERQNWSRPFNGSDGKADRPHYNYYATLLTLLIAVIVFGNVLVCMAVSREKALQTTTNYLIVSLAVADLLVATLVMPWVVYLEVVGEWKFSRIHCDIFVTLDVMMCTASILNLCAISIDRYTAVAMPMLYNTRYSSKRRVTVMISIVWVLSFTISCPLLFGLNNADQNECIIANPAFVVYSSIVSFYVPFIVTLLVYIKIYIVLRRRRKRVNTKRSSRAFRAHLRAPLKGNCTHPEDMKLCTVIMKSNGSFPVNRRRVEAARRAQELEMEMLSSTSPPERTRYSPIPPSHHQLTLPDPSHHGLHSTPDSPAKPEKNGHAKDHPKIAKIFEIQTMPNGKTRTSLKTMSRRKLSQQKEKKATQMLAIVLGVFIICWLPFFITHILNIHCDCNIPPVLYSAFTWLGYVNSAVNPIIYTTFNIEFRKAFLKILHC
Assay [9] has as its target T4, D(2) dopamine receptor. Briefly: Displacement of [3H]raclopride from human recombinant dopamine D2 long receptor expressed in CHO-K1 cells incubated for 120 mins by scintillation counting analysis.
The species entered for assay [10] is Homo sapiens. Briefly: Selectivity index, ratio of Ki for human recombinant histamine H3 receptor expressed in CHO-K1 cells to Ki for human recombinant 5-HT6 receptor expressed in CHO-K1 cells.
The species entered for assay [11] is Homo sapiens. Briefly: Selectivity index, ratio of Ki for human recombinant dopamine D3 receptor expressed in CHO-K1 cells to Ki for human recombinant 5-HT6 receptor expressed in CHO-K1 cells.
For assay [12], the species on record is Homo sapiens. Briefly: Selectivity index, ratio of Ki for human recombinant dopamine D2 long receptor expressed in CHO-K1 cells to Ki for human recombinant 5-HT6 receptor expressed in CHO-K1 cells.

T2 sequence (P35462 whole entry): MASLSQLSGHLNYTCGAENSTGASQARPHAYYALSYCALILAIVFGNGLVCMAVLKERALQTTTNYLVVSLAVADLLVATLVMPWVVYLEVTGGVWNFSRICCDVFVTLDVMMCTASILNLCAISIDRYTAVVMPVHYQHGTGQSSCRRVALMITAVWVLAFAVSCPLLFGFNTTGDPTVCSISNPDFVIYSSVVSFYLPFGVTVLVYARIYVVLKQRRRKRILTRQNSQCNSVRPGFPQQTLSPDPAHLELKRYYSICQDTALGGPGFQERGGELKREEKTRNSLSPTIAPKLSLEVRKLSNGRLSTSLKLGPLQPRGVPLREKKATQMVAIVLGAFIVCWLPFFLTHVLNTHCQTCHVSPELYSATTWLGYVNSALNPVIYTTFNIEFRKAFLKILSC

Regarding `CCN1CCN(c2cccc3c2CCN3S(=O)(=O)c2ccccc2)CC1`, the Ki – broadly, a measure of affinity in units of concentration, obtained from inhibition or displacement – at Histamine H3 receptor [1] stood at 344 nM; on D(3) dopamine receptor [2], 72 nM; in assay [3], 31 nM; at D(2) dopamine receptor [9], 84 nM. Besides, the inhibition – broadly, the change of the read-out against control, counted positive when it falls – on Histamine H3 receptor [4] is 50%; in [6], 89%; on D(3) dopamine receptor [7], 91%; at D(2) dopamine receptor [8], 80%. Also, the Ratio Ki in the assay filed under Homo sapiens [5] turned out to be 1.5.
As to `CCN1CCC(c2cccc3c2CCN3S(=O)(=O)c2ccccc2)CC1`, the Ki on Histamine H3 receptor [1] turned out to be 317 nM; on D(3) dopamine receptor [2], 591 nM; in [3] it was 170 nM. Moreover, the inhibition at Histamine H3 receptor [4] stood at 50%; in assay [6], 59%; on D(3) dopamine receptor [7], 58%; on D(2) dopamine receptor [8], 25%.
Regarding `O=S(=O)(c1ccccc1)N1CCc2c(N3CCN(C4CCC4)CC3)cccc21`, the Ki at Histamine H3 receptor [1] was 580 nM; at D(3) dopamine receptor [2], 449 nM; in [3] it was 266 nM; at D(2) dopamine receptor [9] it was 355 nM. Moreover, the inhibition at Histamine H3 receptor [4] turned out to be 59%; in assay [6] it was 51%; at D(3) dopamine receptor [7], 60%; on D(2) dopamine receptor [8] it was 60%.
Turning to `O=S(=O)(c1ccccc1)N1CCc2c(C3CCN(C4CCC4)CC3)cccc21`, the Ki was 214 nM on Histamine H3 receptor [1] and 1040 nM on D(2) dopamine receptor [9]. Besides, the inhibition on Histamine H3 receptor [4] stood at 82%; in assay [6], 1%; on D(3) dopamine receptor [7], 9%; on D(2) dopamine receptor [8], 48%.
With `O=S(=O)(c1ccccc1)N1Cc2cccc(C3CCNCC3)c2C1`, the Ki in [3] was 0.43 nM. Further, the Ratio Ki in the assay listed under Homo sapiens [10], in the assay listed under Homo sapiens [11] and in the assay listed under Homo sapiens [12] was more than 100 throughout. The inhibition on Histamine H3 receptor [4] is 4%; in assay [6], 101%; at D(3) dopamine receptor [7] it was 16%; at D(2) dopamine receptor [8] it was 17%.
With `CCN1CCN(c2ccc3c(c2)CCN3S(=O)(=O)c2ccccc2)CC1`, the Ki was found to be 280 nM on Histamine H3 receptor [1], 48 nM at D(3) dopamine receptor [2], 129 nM in [3] and 438 nM on D(2) dopamine receptor [9]. The inhibition at Histamine H3 receptor [4] was found to be 65%; in [6] it was 53%; on D(3) dopamine receptor [7], 94%; at D(2) dopamine receptor [8], 50%.
Take `CN1CCC(c2cccc3c2CN(S(=O)(=O)c2ccccc2)C3)CC1`: the Ki in assay [3] amounted to 9 nM. The Ratio Ki in the assay listed under Homo sapiens [10], in the assay listed under Homo sapiens [11] and in the assay filed under Homo sapiens [12] was more than 100 throughout. Moreover, the inhibition at Histamine H3 receptor [4] was 14%; in [6] it was 94%; on D(3) dopamine receptor [7] it was 14%; at D(2) dopamine receptor [8], 14%.
